Reference: patent US20050107289A1, “Anti-microbial peptides and compositions” (priority 2001, published 2005)
Values after ≈ are worked out from the molar mass of the structure shown. Read-outs that look alike come from different tables or passages of the source. Non-standard residues stand in square brackets, D forms with d. Residues, ends and D or L forms follow the SMILES beside them.

What was measured:
[1] = Human; cited from earlier work
[2] = system: E. coli (EL744) K12 (tolC::kan); test: microbe, parasite or virus in culture; format: cell-based, Escherichia coli
Description: (§1) The antimicrobial activity of the peptides was determined using a broth dilution assay essentially as descried in the guidelines of the National Committee for […] (NCCLS) [National Committee for Clinical Laboratory Standards. Methods for dilution antimicrobial susceptibility tests for bacteria that grow aerobically. Fourth edition. Approved Standard (1997). Document M7-A4. […] The microdilution method has the advantages of requiring less amount of peptide for each assay and the possibility of multiple simultaneous inoculations and was used in most studies. Several of the strains of bacteria tested are further described in Table 3.
(§2) Preparation of peptide solutions. Stock peptide solutions were prepared in 5% DMSO in aq. sucrose (9%). Determination of peptide concentrations was done by quantitative HPLC analysis using known concentrations of internal standards and/or by measuring UV absorption of tryptophane-containing peptide solutions in H2O (λ=280 εTrp: 5690). Serial 2-fold dilutions were made in the above DMSO/aq. sucrose (9%) mixture with concentrations ranging approximately 400-2 μg/ml and aliquots were dispensed in test tubes (100 μl) for the macrodilution test or in microtiter plates (20 μl) for the microdilution assays.
(§3) Inoculum preparation. Overnight cultures of different microorganisms grown in suitable media were diluted 4000 times to an approximate inoculum size of 2.5×10^5 cfu/ml.
(§4) Macrodilution method. Macrodilution methods were performed using procedures similar to those described in the National Committee for Clinical Laboratory Standards. Methods for dilution antimicrobial susceptibility tests for bacteria that grow aerobically. Fourth edition. Approved Standard (1997). Document M7-A4. (NCCLS,Villanova, Pa., 1997). Two ml aliquots of the above inoculum were dispensed to test tubes containing different peptide solutions.
(§5) Microdilution method. Microdilution methods were performed using procedures similar to those described in the National Committee for Clinical Laboratory Standards. Methods for dilution antimicrobial susceptibility tests for bacteria that grow aerobically. Fourth edition. Approved Standard (1997). Document M7-A4.

E. coli (K12) = test: microbe, parasite or virus in culture; format: cell-based, Escherichia coli
Description: as §1, §2, §3, §4, §5

H. influenzae ATCC 49247 = test: microbe, parasite or virus in culture; format: cell-based, Hemophilus influenzae
Description: as §1, §2, §3, §4, §5

E. faecalis ATCC 51299 = test: microbe, parasite or virus in culture; format: cell-based, Enterococcus faecalis
Description: as §1, §2, §3, §4, §5

E. faecium SP180 = test: microbe, parasite or virus in culture; format: cell-based, Enterococcus faecium
Description: as §1, §2, §3, §4, §5

S. aureus ATCC 33592 = test: microbe, parasite or virus in culture; format: cell-based, Staphylococcus aureus
Description: as §1, §2, §3, §4, §5

[3] = system: S. aureus (MRSA) (ATCC No. 33592); test: Time-killing curve, S. aureus MRSA ATCC 33592; format: cell-based, Staphylococcus aureus
Description: The speed at which several of the cyclic peptides of the invention kill E. coli JM 109 (DE3), Enterococcus faecium SP 180 and S. aureus (MRSA) (ATCC No. 33591 and 33592) was further tested at room temperature and/or at 37° C. A lower temperature tends to enrich the bacterial cultures for mature bacteria because the bacteria are not growing quickly. […] The presence or absence of immature bacteria in the culture may influence the rate at which the bacteria are killed, because immature bacteria tend to be more susceptible to many forms of antibiotics.
FIGS. 9 and 10 illustrate the time course for killing S. aureus (MRSA) (ATCC No. 33592) with varying concentrations of cyclo[KSKWLWLW] cyclic peptide (SEQ ID NO:12) at room temperature and at 37° C. […] This may be due to growth of a few survivors after the residual cyclic peptide within the culture has been exhausted because the amount of peptide employed in that assay was below the MIC value.

[4] = system: S. aureus (MRSA) ATCC 33591; format: cell-based, Staphylococcus aureus; details: for MRSA (in vitro activity): Table 9
Summary of the method: (§6)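 MIC read from NCCLS-style broth dilution. Peptide concentrations were set by quantitative HPLC or Trp UV absorbance at 280 nm, then serially halved from about 400 to 2 μg/ml in 5% DMSO/9% sucrose. Inoculum: approximately 2.5×10^5 cfu/ml.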

E. coli JM109(DE3) = format: cell-based, Escherichia coli
Summary of the method: as §6

murine red blood cells = test: Red blood cell hemolysis; format: cell-based, mouse; parameters: RBC Hemolysis (HD50): unit not given here; details: for RBC Hemolysis (HD50): Table 9
Summary of the method: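 Washed murine erythrocytes at 5% in saline with 10% FBS were exposed to serial peptide dilutions for 30 min at 37° C. Supernatant absorbance at 560 nm was read, with saline as 0% and 1% Triton X-100 as 100% hemolysis.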

[5] = system: vancomycin-resistant Enterococus faecalis (VRE)(ATCC 51575); format: cell-based, Enterococcus faecalis; details: for VRE (in vitro activity): Table 9
Summary of the method: as §6

[6] = system: Bacillus cereus ATCC 11778; format: cell-based; details: Table 10
Summary of the method: as §6

[7] = trypsin, α-chymotrypsin, subtilisin, blood plasma; RP-HPLC over 24 h
Description: Cyclic peptides having SEQ ID NO:13, 18, 26, and 29 were assayed for proteolytic susceptibility.

CC[C@H]1OC(=O)[C@H](C)[C@@H](O[C@H]2C[C@@](C)(OC)[C@@H](O)[C@H](C)O2)[C@H](C)[C@@H](O[C@@H]2O[C@H](C)C[C@H](N(C)C)[C@H]2O)[C@](C)(O)C[C@@H](C)C(=O)[C@H](C)[C@@H](O)[C@]1(C)O [Erythromycin]
Kel elimination rate constant [1]: 0.58 h⁻¹ | T1/2 half life time [1]: 1.2 h

CC1(C)S[C@@H]2[C@H](NC(=O)Cc3ccccc3)C(=O)N2[C@H]1C(=O)O [Penicillin G, reference compound]
E. coli (EL744) K12 (tolC::kan) MIC ([2]; MHII broth): 16 µg/mL | E. coli (K12) MIC (E. coli (K12); MHII broth): 32 µg/mL | H. influenzae ATCC 49247 MIC (H. influenzae ATCC 49247; HTM): 4 µg/mL | E. faecalis ATCC 51299 MIC (E. faecalis ATCC 51299; BHI broth): 0.5 µg/mL | E. faecium SP180 MIC (E. faecium SP180; BHI broth): 128 µg/mL | S. aureus ATCC 33592 MIC (S. aureus ATCC 33592; MHII broth): 64 µg/mL | reduction of cfu ([3]; 512 μg/ml, 37° C.): effective in reducing the number of cfu within four hours | killing or reducing S. aureus (MRSA) population ([3]; room temperature, 0-8 hours, up to 512 μg/ml): no concentration of penicillin G assayed up to 512 μg/ml was effective

CC(C)C[C@H]1NC(=O)[C@H](Cc2c[nH]c3ccccc23)NC(=O)[C@@H](CCCCN)NC(=O)[C@H](Cc2c[nH]cn2)NC(=O)[C@@H](CO)NC(=O)[C@H](Cc2c[nH]c3ccccc23)NC(=O)[C@@H](CC(C)C)NC(=O)[C@H](Cc2c[nH]c3ccccc23)NC1=O [SEQ ID NO:13] (cyclo([dS]H[dK]W[dL]W[dL]W))
S. aureus (MRSA) MIC ([4]; Table 6, ATCC 33591): 10 µg/mL | MRSA (in vitro activity) ([4]; media a: anti-microbial media-3 (AM-3)): 10 | MRSA MIC ([4]; Table 10, ATCC 33591): 10 µg/mL | E. coli MIC (E. coli JM109(DE3); Table 6, JM109(DE3)): 100 µg/mL | RBC Hemolysis (HD50) (murine red blood cells): 35 | VRE (in vitro activity) ([5]; media a: AM-3): 40 | VRE MIC ([5]; Table 10, ATCC 51575): 40 µg/mL | B. cerius MIC [6]: 12 µg/mL | proteolytic stability [7]: stable

CC(C)C[C@H]1NC(=O)[C@H](CCCNC(=N)N)NC(=O)[C@@H](CCCNC(=N)N)NC(=O)[C@H](Cc2c[nH]c3ccccc23)NC(=O)[C@@H](CC(C)C)NC(=O)[C@H](Cc2c[nH]c3ccccc23)NC1=O [SEQ ID NO:29, cyclo-(D-Arg-Arg-D-Leu-Trp-D-Leu-Trp)] (cyclo(R[dL]W[dL]W[dR]))
S. aureus (MRSA) MIC ([4]; ATCC 33591): 35 µg/mL | E. coli MIC (E. coli JM109(DE3); JM109): 5 µg/mL | Hemolysis HD50 (murine red blood cells; red cells of murine): 90 µg/mL | proteolytic stability [7]: stable

CN[C@H](CC(C)C)C(=O)N[C@H]1C(=O)N[C@@H](CC(N)=O)C(=O)N[C@H]2C(=O)N[C@H]3C(=O)N[C@H](C(=O)N[C@H](C(=O)O)c4cc(O)cc(O)c4-c4cc3ccc4O)[C@H](O)c3ccc(c(Cl)c3)Oc3cc2cc(c3O[C@@H]2O[C@H](CO)[C@@H](O)[C@H](O)[C@H]2O[C@H]2C[C@](C)(N)[C@H](O)[C@H](C)O2)Oc2ccc(cc2Cl)[C@H]1O [Vancomycin, reference compound]
MRSA (in vitro activity) ([4]; media b: cation adjusted Meuller Hinton broth (MHBII)): VANCOMYCIN <1.8 | RBC Hemolysis (HD50) (murine red blood cells): >240 | VRE (in vitro activity) ([5]; media c: Brain Heart Infusion (BHI)): >240 | MIC ([2]; Escherichia coli, read-out: E. coli (EL744) K12 (tolC::kan) MIC): 128 µg/mL (≈ 88.3 µM) | MIC (E. coli (K12); Escherichia coli, read-out: E. coli (K12) MIC): 128 µg/mL (≈ 88.3 µM) | MIC (H. influenzae ATCC 49247; Haemophilus influenzae, ATCC49247, read-out: H. influenzae ATCC 49247 MIC): 128 µg/mL (≈ 88.3 µM) | MIC (E. faecalis ATCC 51299; Enterococcus faecalis, ATCC51299, read-out: E. faecalis ATCC 51299 MIC): 32 µg/mL (≈ 22.1 µM) | MIC (E. faecium SP180; Enterococcus faecium, SP180, read-out: E. faecium SP180 MIC): > 128 µg/mL | MIC (S. aureus ATCC 33592; Staphylococcus aureus, ATCC33592, read-out: S. aureus ATCC 33592 MIC): 0.5 µg/mL (≈ 0.345 µM) | CL total clearance [1]: 66 mL/min | Kel elimination rate constant [1]: 0.12 h⁻¹ | T1/2 half life time [1]: 6 h | VD volume of distribution [1]: 0.47 L/kg
